{"source": "patent US9475842B2", "about": "“Hexadepsipeptide analogues as anticancer compounds” (PIRAMAL ENTERPRISES LIMITED, priority 2012, dated 2016)", "format_in_all_cases": "cell-based, human", "key": {"[1]": {"test_system": "HCT 116 (Colorectal Cancer)", "assay": "Monolayer assay (CCK-8 cytotoxicity)", "settings": "Homo sapiens, HCT-116; HCT116, Colon; 24 hrs exposure, CCK-8; read-out: IC50", "description": "(§1) The assays were designed as in the reference, BMC Cancer, 2010, 10, 610, 1-11; the disclosure of which is incorporated by reference for the teaching of the assay.\n(§2) Human tumour cell lines: Panc-1 (Pancreatic Cancer), HCT 116 (Colorectal Cancer), ACHN (Renal Cell Carcinoma), Calu-1 (Lung Carcinoma), MiaPaca2 (Pancreatic Cancer), FADU (Head and Neck Cancer), PC3 (prostate Cancer), G361 (Melanoma), MDA-MB435S (Melanoma), HeLa (Cervical Cancer) were grown in Minimal Essential Media with Eagle's Basal Salts (MEM-EBS) obtained from AMIMED (BioConcept-Switzerland). Tumour cell lines: MDA-MB231 (Breast Cancer), JURKAT (T cell leukaemia), H460 (Small Cell Lung Cancer) were cultured in RPMI 1640 (AMIMED, BioConcept, Switzerland) medium. All tumour cell lines were supplemented with 10% Foetal Bovine Serum (FBS) (GIBCO), 1% Penicillin/Streptomycin (Sigma) and 1% Anti-Anti (GIBCO) and grown in T-175 tissue culture flasks (Nunc). MCF-10A, a non-tumourigenic cell line, was cultured in Mammary Epithelial Basal Medium (MEBM) with all standard additions (Lonza, Catalog. No. CC-3150). All cells were grown in 5% CO2 incubator at 37° C. Cells were passaged at 80-90% confluence. Adherent cells were trypsinised using Trypsin-EDTA (Sigma) and maintained. All cell lines were purchased from ATCC (Rockville, Md., USA).\n(§3) Compound of Formula (1a) [described in example 7] was dissolved in DMSO to give a required stock solution of 20 mM. Eight different concentrations of the compound of Formula (1a) were prepared by serial dilution of stock solution finally resulting in a (compared to the test concentration) 200-fold higher concentration. Compound of Formula (1a) was tested at the concentration of 0.0001 μM, 0.001 μM, 0.01 μM, 0.03 μM, 0.1 μM, 0.3 μM, 1 μM and 3 μM respectively. Each concentration was evaluated in triplicate.\n(§4) Method for determination of IC50 of the compound of Formula (1a): • a) Different cancer/normal cells were seeded at a density of 3000 cells/200 μL well, in a tissue culture grade 96 well plate and allowed them to recover for 24 hrs in a humidified 5±0.2% CO2 incubator at 37±0.5° C. • b) After 24 hrs, 1 μL of 200× (200 times higher than required concentration is denoted as 200×) compound of Formula (1a), dissolved in DMSO, was added to the above tissue culture plate seeded with cancer/normal cells. The final concentration of DMSO was 0.5% in wells. DMSO was used as a vehicle control. • c) After 24 hrs the plate was removed from CO2 incubator and 5 μL of CCK-8 (Dojindo Molecular Technologies, Inc. USA, catalog, no. CK04-20) per well was added. • d) The plate was then placed at 37° C. for 2 hrs. • e) The absorbance was recorded at 450 nm. • f) The percent cytotoxicity was calculated using the following formula\n(§5) The IC50 value was estimated by visual inspection of the concentration-effect curve. For calculation of mean IC50 values over the fourteen cell lines as tested, the geometric mean was selected.\n(§6) The assays were designed as described above in example 16.\n(§7) The IC50 value was estimated by visual inspection of the concentration-effect curve. For calculation of mean IC50 values over the six cell lines (PC3, MDA MB, HCT116, MCF7, MIAPaCa2, MCF10A) as tested, the geometric mean was selected."}, "[2]": {"test_system": "MDA-MB231 (Breast Cancer)", "assay": "Monolayer assay (CCK-8 cytotoxicity)", "settings": "Homo sapiens, MDA-MB-231; MDAMB231, Breast; 24 hrs exposure, CCK-8; read-out: IC50", "description": "as §1, §2, §3, §4, §5, §6, §7"}, "PC3 (prostate Cancer)": {"test_system": "PC3 (prostate Cancer)", "assay": "Monolayer assay (CCK-8 cytotoxicity)", "settings": "Homo sapiens; PC3, Prostate; 24 hrs exposure, CCK-8; read-out: IC50", "description": "as §1, §2, §3, §4, §5, §6, §7"}, "[3]": {"test_system": "cleaved caspase 9 in HeLa cells", "assay": "Protein expression by high content screening (Cellomics)", "settings": "for Fold activation with respect to control cells, Cleaved Caspase 9: HeLa cells, after 3 hours", "description": "(§8) Protein expressions of cyclin D, nuclear factor-kappa B (p65) [NFkB (p65)], ribosomal protein S6 (pS6), tumor protein 53 (p53), protein c-jun N-terminal kinase (pJNK), cleaved caspase 9, cleaved caspase 3 and cleaved poly(ADP-ribose) polymerase (PARP) was carried out in HeLa cells [referred to in step 1 of example 16] by Cellomics high content imaging. These primary antibodies were purchased from Santacruz Biotechnology, USA. Briefly 1×10^4 cells were seeded in 96 well tissue culture grade black plate with transparent bottom (Nunc, USA), and allowed to adhere for 24 h, and then replaced with fresh media, and cells were treated with 0.01 μM, 0.003 μM and 0.0003 μM concentrations of compound of Formula (1) [referred to in step 2 of example 16] and incubated for 1 h and 3 h respectively. After respective time point, cells were fixed with 3.7% formaldehyde (Sigma St. Louis, Mo.) for 10 minutes at RT, followed by permeabilization with 0.15% Triton X-100 (Sigma St. Louis, Mo.) for 10 minutes. Then the cells were blocked with 5% Bovine Serum Albumin for 2 hours. After blocking step, specific primary antibodies were added for 1 h, and primary antibodies of different protein were localized by secondary antibody labeled with Dylight548 (red) (Thermofisher, USA). Following secondary incubation, the nucleus was stained with Hoechst 3342 (blue) (Sigma, USA). Immunofluorescence was determined by scanning the plates on Cellomics Array Scan® VTI HCS Reader (Thermo-Fisher Scientific Inc., Waltham, Mass.). All the data points were analyzed using the Compartmental Analysis bio-algorithm of Cellomics and quantitative data were expressed as % activation in comparison to the untreated cells. 1000 cells were counted for each replicate well and the results were presented as an average±S.E."}, "cyclin D in HeLa cells": {"test_system": "cyclin D in HeLa cells", "assay": "Protein expression by high content screening (Cellomics)", "settings": "for Fold down regulation with respect to control cells, Cyclin D: HeLa cells, after 3 hours", "description": "as §8"}, "[4]": {"test_system": "nuclear factor-kappa B (p65) [NFkB (p65)] in HeLa cells", "assay": "Protein expression by high content screening (Cellomics)", "settings": "for Fold down regulation with respect to control cells, NFkB (p65): HeLa cells, after 3 hours", "description": "as §8"}, "[5]": {"test_system": "protein c-jun N-terminal kinase (pJNK) in HeLa cells", "assay": "Protein expression by high content screening (Cellomics)", "settings": "for Fold activation with respect to control cells, pJNK: HeLa cells, after 3 hours", "description": "as §8"}, "[6]": {"test_system": "tumor protein 53 (p53) in HeLa cells", "assay": "Protein expression by high content screening (Cellomics)", "settings": "for Fold activation with respect to control cells, P53: HeLa cells, after 3 hours", "description": "as §8"}}, "data": [{"smiles": "CC(C)CC1CCC(O)(C(C)(O)C(=O)NC2C(=O)N3NCCCC3C(=O)N(O)C(C)C(=O)NCC(=O)N3NCCCC3C(=O)N(O)C(C)C(=O)OC2C(C)C)OC1C", "note": "(centres unmarked) [Formula (1a), N-(6,18-dihydroxy-22-isopropyl-7,19-dimethyl-5,8,11,17,20,24-hexaoxotetracosa hydrodipyridazino[6,1-f:6′,1′-o][1,4,7,10,13,16]oxapentaazacyclononadecin-23-yl)-2-hydroxy-2-(2-hydroxy-5-isobutyl-6-methyltetrahydro-2H-pyran-2-yl)propanamide]", "values": [{"measurement": "IC50", "setting": "[1]", "value": "15.1 ± 2.3", "unit": "nM"}, {"measurement": "IC50", "setting": "[2]", "value": "6.1 ± 0.52", "unit": "nM"}, {"measurement": "IC50", "setting": "PC3 (prostate Cancer)", "value": "5.2 ± 0.41", "unit": "nM"}, {"measurement": "Fold activation with respect to control cells, Cleaved Caspase 9", "setting": "[3]; 0.0003 μM", "value": "−0.04", "unit": "fold"}, {"measurement": "Fold activation with respect to control cells, Cleaved Caspase 9", "setting": "[3]; 0.003 μM", "value": 0.53, "unit": "fold"}, {"measurement": "Fold activation with respect to control cells, Cleaved Caspase 9", "setting": "[3]; 0.01 μM", "value": 2.22, "unit": "fold"}, {"measurement": "effect on cleaved caspase 9 expression (in words)", "setting": "[3]; cancer cells, conclusion", "value": "up-regulates"}, {"measurement": "Fold down regulation with respect to control cells, Cyclin D", "setting": "cyclin D in HeLa cells; 0.0003 μM", "value": "−0.57", "unit": "fold"}, {"measurement": "Fold down regulation with respect to control cells, Cyclin D", "setting": "cyclin D in HeLa cells; 0.003 μM", "value": "−0.89", "unit": "fold"}, {"measurement": "Fold down regulation with respect to control cells, Cyclin D", "setting": "cyclin D in HeLa cells; 0.01 μM", "value": "−3.81", "unit": "fold"}, {"measurement": "effect on cyclin D protein expression (in words)", "setting": "cyclin D in HeLa cells; cancer cells, conclusion", "value": "significantly downregulates"}, {"measurement": "Fold down regulation with respect to control cells, NFkB (p65)", "setting": "[4]; 0.0003 μM", "value": "−0.46", "unit": "fold"}, {"measurement": "Fold down regulation with respect to control cells, NFkB (p65)", "setting": "[4]; 0.003 μM", "value": "−0.80", "unit": "fold"}, {"measurement": "Fold down regulation with respect to control cells, NFkB (p65)", "setting": "[4]; 0.01 μM", "value": "−1.86", "unit": "fold"}, {"measurement": "effect on NFkB (p65) protein expression (in words)", "setting": "[4]; cancer cells, conclusion", "value": "significantly downregulates"}, {"measurement": "Fold activation with respect to control cells, pJNK", "setting": "[5]; 0.0003 μM", "value": 0.55, "unit": "fold"}, {"measurement": "Fold activation with respect to control cells, pJNK", "setting": "[5]; 0.003 μM", "value": 0.85, "unit": "fold"}, {"measurement": "Fold activation with respect to control cells, pJNK", "setting": "[5]; 0.01 μM", "value": 2.42, "unit": "fold"}, {"measurement": "effect on pJNK expression (in words)", "setting": "[5]; cancer cells, conclusion", "value": "up-regulates"}, {"measurement": "Fold activation with respect to control cells, P53", "setting": "[6]; 0.0003 μM", "value": "−0.15", "unit": "fold"}, {"measurement": "Fold activation with respect to control cells, P53", "setting": "[6]; 0.003 μM", "value": 0.55, "unit": "fold"}, {"measurement": "Fold activation with respect to control cells, P53", "setting": "[6]; 0.01 μM", "value": 2.27, "unit": "fold"}, {"measurement": "effect on p53 expression (in words)", "setting": "[6]; cancer cells, conclusion", "value": "up-regulates"}]}]}
